Results from patent US11384079B2, “6-5 fused rings as C5a inhibitors” (CHEMOCENTRYX, INC., priority 2017, dated 2022).

Molecular target: T1, C5aR (Homo sapiens, UniProt P21730)
T1 construct: U937 cells are a monocytic cell line which express C5aR; host or cells: U937 cells (cAMP treated) or isolated neutrophils
T1 sequence (P21730 1-350): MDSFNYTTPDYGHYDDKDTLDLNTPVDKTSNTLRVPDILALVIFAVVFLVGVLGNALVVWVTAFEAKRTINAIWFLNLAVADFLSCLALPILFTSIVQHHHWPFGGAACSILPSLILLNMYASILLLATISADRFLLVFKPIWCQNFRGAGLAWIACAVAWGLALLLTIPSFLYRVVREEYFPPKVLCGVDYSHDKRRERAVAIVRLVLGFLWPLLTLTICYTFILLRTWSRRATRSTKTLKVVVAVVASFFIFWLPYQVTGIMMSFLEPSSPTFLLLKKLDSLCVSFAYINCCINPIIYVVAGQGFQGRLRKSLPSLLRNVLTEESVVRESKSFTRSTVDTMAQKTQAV
Assay: chemotaxis assay (C5aR mediated migration)
Format: cell-based
Details: migration of U937 or neutrophil cells toward C5a (0.03 nM), 1.5 hours at 37° C., read-out: Mig IC50
Description: U937 cells are a monocytic cell line which express C5aR, and are available from ATCC (VA). […] Cells were grown under 5% CO2/95% air, 100% humidity at 37° C. and subcultured twice weekly at 1:6 (cells were cultured at a density range of 1×10^5 to 2×10^6 cells/mL) and harvested at 1×10^6 cells/mL. Prior to assay, cells are treated overnight with 0.5 mM of cyclic AMP (Sigma, Ohio) and washed once prior to use. cAMP treated U937 cells can be used in C5aR ligand binding and functional assays.
Optionally, human or murine neutrophils can be used to assay for compound activity. Neutrophils may be isolated from fresh human blood using density separation and centrifugation. Briefly, whole blood is incubated with equal parts 3% dextran and allowed to separate for 45 minutes. After separation, the top layer is layered on top of 15 mls of Ficoll (15 mls of Ficoll for every 30 mls of blood suspension) and centrifuged for 30 minutes at 400×g with no brake. The pellet at the bottom of the tube is then isolated and resuspended into PharmLyse RBC Lysis Buffer (BD Biosciences, San Jose, Calif.) after which the sample is again centrifuged for 10 minutes at 400×g with brake. The remaining cell pellet is resuspended as appropriate and consists of isolated neutrophils.
Optionally, compounds may be further assayed for their ability to inhibit chemotaxis in cells. Chemotaxis assays are performed using 5 μm pore polycarbonate, polyvinylpyrrolidone-coated filters in 96-well chemotaxis chambers (Neuroprobe; Gaithersburg, Md.) using chemotaxis buffer (Hank's balanced salt solution (HBSS) and 1% FBS). C5aR ligands (i.e., C5a, R&D Systems; Minneapolis, Minn.) are use to evaluate compound mediated inhibition of C5aR mediated migration. Other chemokines (i.e., SDF-1α; R&D Systems; Minneapolis, Minn.) are used as specificity controls. […] The chambers are incubated 1.5 hours at 37° C., and the number of cells in the lower chamber quantified either by direct cell counts in five high powered fields per well or by the CyQuant assay (Molecular Probes), a fluorescent dye method that measures nucleic acid content and microscopic observation.

| Structure (SMILES) | IC50 |
| --- | --- |
| Cc1cccc(C)c1-n1nc2c(c1-c1ncc(Cl)c3[nH]ccc13)CN(c1ncc(C3CC3)cn1)CC2 [Example 1.001] | 0.005 to 0.05 µM |
| COc1c(F)cc(-c2c3c(nn2-c2c(C)cccc2F)CCN(c2ncc(C(F)(F)F)cn2)C3)c2cc[nH]c12 [Example 1.002] | 0.005 to 0.05 µM |
| COc1c(F)cc(-c2c3c(nn2-c2c(C)cccc2C)CCN(c2ncc(C4CC4)cn2)C3)c2cc[nH]c12 [Example 1.003] | < 0.005 µM |
| COc1c(F)cc(-c2c3c(nn2-c2c(C)cccc2C)CCN(c2ncc(C(F)(F)F)cn2)C3)c2cc[nH]c12 [Example 1.004] | 0.005 to 0.05 µM |
| CCc1cccc(CC)c1-n1nc2c(c1-c1nccc3[nH]cc(Cl)c13)CN(c1ncc(C(F)(F)F)cn1)CC2 [Example 1.005] | < 0.005 µM |
| COc1cccc(C)c1-n1nc2c(c1-c1ccc3[nH]ccc3c1)CN(c1cc(C(C)(C)C)ccc1C)CC2 [Example 1.006] | 0.005 to 0.05 µM |
| COc1cccc(F)c1-n1nc2c(c1-c1cc(F)c(OC)c3[nH]ccc13)CN(c1ncc(C(F)(F)F)cn1)CC2 [Example 1.007] | 0.05 to 0.5 µM |
| CCc1cccc(CC)c1-n1nc2c(c1-c1ncc(Cl)c3[nH]ccc13)CN(c1ncc(C(F)(F)F)cn1)CC2 [Example 1.008] | < 0.005 µM |
| CCc1cccc(CC)c1-n1nc2c(c1-c1ccc3[nH]cnc3c1Cl)CN(c1ncc(C(F)(F)F)cn1)CC2 [Example 1.009] | 0.05 to 0.5 µM |
| CCc1cccc(CC)c1-n1nc2c(c1-c1ccc3[nH]ccc3n1)CN(c1ncc(C(F)(F)F)cn1)CC2 [Example 1.010] | > 0.5 µM |
| CCc1cccc(CC)c1-n1nc2c(c1-c1cnc3[nH]ccc3c1)CN(c1ncc(C(F)(F)F)cn1)CC2 [Example 1.011] | > 0.5 µM |
| CCc1cccc(CC)c1-n1nc2c(c1-c1cc3cc[nH]c3cn1)CN(c1ncc(C(F)(F)F)cn1)CC2 [Example 1.012] | 0.05 to 0.5 µM |
| CCc1cccc(CC)c1-n1nc2c(c1-c1ncc(OC)c3[nH]ccc13)CN(c1ncc(C(F)(F)F)cn1)CC2 [Example 1.013] | 0.005 to 0.05 µM |
| CCc1cccc(CC)c1-n1nc2c(c1-c1c(F)cnc3[nH]ccc13)CN(c1ncc(C(F)(F)F)cn1)CC2 [Example 1.014] | 0.005 to 0.05 µM |
| CCc1cccc(CC)c1-n1nc2c(c1-c1nccc3[nH]ncc13)CN(c1ncc(C(F)(F)F)cn1)CC2 [Example 1.015] | 0.005 to 0.05 µM |
| CCc1cccc(CC)c1-n1nc2c(c1-c1ccc3[nH]c(C)nc3c1)CN(c1ncc(C(F)(F)F)cn1)CC2 [Example 1.016] | > 0.5 µM |
| CCc1cccc(CC)c1-n1nc2c(c1-c1ccc3[nH]cnc3c1)CN(c1ncc(C(F)(F)F)cn1)CC2 [Example 1.017] | > 0.5 µM |
| Cc1cccc(OCC(C)C)c1-n1nc2c(c1-c1ccc3[nH]ccc3c1)CN(C(=O)OC(C)(C)C)CC2 [Example 1.018] | 0.005 to 0.05 µM |
| CCc1cccc(CC)c1-n1nc2c(c1-c1cc(F)c(OC)c3[nH]c(F)nc13)CN(c1ncc(C(F)(F)F)cn1)CC2 [Example 1.019] | 0.005 to 0.05 µM |
| CCc1cccc(CC)c1-n1nc2c(c1-c1ncc(C)c3[nH]ccc13)CN(c1ncc(C(F)(F)F)cn1)CC2 [Example 1.020] | < 0.005 µM |
| CCc1cccc(CC)c1-n1nc2c(c1-c1cc(F)c(OC)c3[nH]c(Cl)nc13)CN(c1ncc(C(F)(F)F)cn1)CC2 [Example 1.021] | 0.05 to 0.5 µM |
| CCc1cccc(CC)c1-n1nc2c(c1-c1cncc3[nH]ccc13)CN(c1ncc(C(F)(F)F)cn1)CC2 [Example 1.022] | 0.05 to 0.5 µM |
| CCc1cccc(CC)c1-n1nc2c(c1-c1cc(F)c(OC)c3[nH]cc(F)c13)CN(c1ncc(C(F)(F)F)cn1)CC2 [Example 1.023] | < 0.005 µM |
| CCOc1c(F)cc(-c2c3c(nn2-c2c(CC)cccc2CC)CCN(c2ncc(C(F)(F)F)cn2)C3)c2cc[nH]c12 [Example 1.024] | < 0.005 µM |
| CCc1cccc(CC)c1-n1nc2c(c1-c1cc(Cl)cc3[nH]cnc13)CN(c1ncc(C(F)(F)F)cn1)CC2 [Example 1.025] | 0.05 to 0.5 µM |
| CCc1cccc(CC)c1-n1nc2c(c1-c1ncnc3[nH]ccc13)CN(c1ncc(C(F)(F)F)cn1)CC2 [Example 1.026] | 0.005 to 0.05 µM |

| Structure (SMILES) | IC50 |
| --- | --- |
| CCc1cccc(CC)c1-n1nc2c(c1-c1cnc(C)c3[nH]ccc13)CN(c1ncc(C(F)(F)F)cn1)CC2 [Example 1.027] | 0.005 to 0.05 µM |
| CCc1cccc(CC)c1-n1nc2c(c1-c1cc(F)c(OC)c3[nH]c(CO)nc13)CN(c1ncc(C(F)(F)F)cn1)CC2 [Example 1.028] | > 0.5 µM |
| CCc1cccc(CC)c1-n1nc2c(c1-c1ccnc3[nH]ccc13)CN(c1ncc(C(F)(F)F)cn1)CC2 [Example 1.029] | 0.005 to 0.05 µM |
| CCc1cccc(CC)c1-n1nc2c(c1-c1cc(F)c(CO)c3[nH]cnc13)CN(c1ncc(C(F)(F)F)cn1)CC2 [Example 1.030] | < 0.005 µM |
| CCc1cccc(CC)c1-n1nc2c(c1-c1nccc3[nH]ccc13)CN(c1ncc(C(F)(F)F)cn1)CC2 [Example 1.031] | 0.005 to 0.05 µM |
| CCc1cccc(CC)c1-n1nc2c(c1-c1cc(F)c(OC)c3[nH]cc(Cl)c13)CN(c1ncc(C(F)(F)F)cn1)CC2 [Example 1.032] | < 0.005 µM |
| CCc1cccc(CC)c1-n1nc2c(c1-c1cc(F)c(OC)c3[nH]ccc13)C(=O)N(c1ncc(C(F)(F)F)cn1)CC2 [Example 1.033] | 0.05 to 0.5 µM |
| CCc1cccc(CC)c1-n1nc2c(c1-c1ccc(Cl)c3[nH]ccc13)C(=O)N(c1ncc(C(F)(F)F)cn1)CC2 [Example 1.034] | > 0.5 µM |
| CCc1cccc(CC)c1-n1nc2c(c1-c1ccc(Cl)c3[nH]cnc13)CN(c1ncc(C(F)(F)F)cn1)CC2 [Example 1.035] | < 0.005 µM |
| CCc1cccc(CC)c1-n1nc2c(c1-c1cc(F)c(OC)c3[nH]cnc13)CN(c1ncc(C(F)(F)F)cn1)CC2 [Example 1.036] | < 0.005 µM |
| CCc1cccc(CC)c1-n1nc2c(c1-c1ccc3[nH]c(C)nc3c1Cl)CN(c1ncc(C(F)(F)F)cn1)CC2 [Example 1.037] | 0.005 to 0.05 µM |
| CCc1cccc(CC)c1-n1nc2c(c1-c1ccc(Cl)c3[nH]c(C)nc13)CN(c1ncc(C(F)(F)F)cn1)CC2 [Example 1.038] | 0.005 to 0.05 µM |
| CCc1cccc(CC)c1-n1nc2c(c1-c1ccc3[nH]ccc3c1)CN(c1ncc(C(F)(F)F)cn1)CC2 [Example 1.039] | 0.005 to 0.05 µM |
| CCc1cccc(CC)c1-n1nc2c(c1-c1cccc3[nH]ccc13)CN(c1ncc(C(F)(F)F)cn1)CC2 [Example 1.040] | 0.005 to 0.05 µM |
| CCc1cccc(CC)c1-n1nc2c(c1-c1cc(F)c(Cl)c3[nH]ncc13)CN(c1ncc(C(F)(F)F)cn1)CC2 [Example 1.041] | < 0.005 µM |
| CCc1cccc(CC)c1-n1nc2c(c1-c1cccc3[nH]c(C(F)(F)F)nc13)CN(c1ncc(C(F)(F)F)cn1)CC2 [Example 1.042] | 0.05 to 0.5 µM |
| CCc1cccc(CC)c1-n1nc2c(c1-c1cccc3[nH]cnc13)CN(c1ncc(C(F)(F)F)cn1)CC2 [Example 1.043] | 0.005 to 0.05 µM |
| CCc1cccc(CC)c1-n1nc2c(c1-c1cc(Cl)c(OC)c3[nH]ccc13)CN(c1ncc(C(F)(F)F)cn1)CC2 [Example 1.044] | < 0.005 µM |
| CCc1cccc(CC)c1-n1nc2c(c1-c1c(F)cc(OC)c3[nH]ccc13)CN(c1ncc(C(F)(F)F)cc1F)CC2 [Example 1.045] | < 0.005 µM |
| CCc1cccc(CC)c1-n1nc2c(c1-c1c(F)cc(OC)c3[nH]ccc13)CN(c1ncc(C(F)(F)F)cn1)CC2 [Example 1.046] | < 0.005 µM |
| CCc1cccc(CC)c1-n1nc2c(c1-c1ccc(C(=O)N(C)C)c3[nH]ccc13)CN(c1ncc(C(F)(F)F)cn1)CC2 [Example 1.047] | 0.05 to 0.5 µM |
| CCc1cccc(CC)c1-n1nc2c(c1-c1c(F)cc(Cl)c3[nH]ccc13)CN(c1ncc(OC(C)C)cn1)CC2 [Example 1.048] | < 0.005 µM |
| Cc1cccc(C)c1-n1nc2c(c1-c1ccc(Cl)c3[nH]ncc13)CN(c1ncc(C(F)(F)F)cn1)CC2 [Example 1.049] | 0.005 to 0.05 µM |
| CCc1cccc(CC)c1-n1nc2c(c1-c1cc(F)c(OC)c3[nH]ccc13)CN(c1ncc(C3CC3)cn1)CC2 [Example 1.050] | < 0.005 µM |
| CCc1cccc(CC)c1-n1nc2c(c1-c1cc(F)c(OC)c3[nH]ncc13)CN(c1ncc(C(F)(F)F)cc1F)CC2 [Example 1.051] | < 0.005 µM |
| CCc1cccc(CC)c1-n1nc2c(c1-c1ccc(OC)c3[nH]ncc13)CN(c1ncc(C(F)(F)F)cc1F)CC2 [Example 1.052] | 0.005 to 0.05 µM |
